Assay results published in US20210308089A1, “METHODS OF TREATING AND/OR PREVENTING VIRAL INFECTIONS AND/OR DISEASES CAUSED BY VIRUSES IN A SUBJECT IN NEED THEREOF” (priority 2020, published 2021).

Test system: hs-CRP, D-dimer, ESR, blood counts, NLR, systemic immune-inflammation index
Test: VASCEPA-COVID-19: inflammatory biomarkers, baseline to day 14 follow-up, IPE vs usual care
Format: in vivo, human
Procedure: This was a 14-day long, prospective, multi-site, two-armed, randomized, open-label study of approximately 100 individuals in Canada with a COVID-19-positive diagnosis or who have recently undergone testing for SARS-CoV-2. […] Blood samples are collected to determine if IPE use lowers circulating pro-inflammatory biomarkers.
Eligible patients were randomly allocated to the IPE group or the usual care group. Randomization was performed using envelope randomization via stratification using random permuted blocks. Patients allocated to the IPE group received a loading dose of 4 g IPE twice daily for 3 days followed by 2 g twice daily for 11 days. The usual care group received no intervention. Participant characteristics were obtained at baseline, while blood samples and clinical outcomes were obtained/measured at baseline and at follow-up.
The primary biomarker endpoint was the change in high-sensitivity C-reactive protein (hs-CRP) levels from baseline (day 1) to follow-up (day 14+3) within-groups. D-dimer, erythrocyte sedimentation rate (ESR), complete blood count, differential count, serum albumin levels, the neutrophil-to-lymphocyte ratio (NLR), and the systemic immune-inflammation index (defined by platelet count multiplied by NLR) from baseline to follow-up were secondary biomarker endpoints. The clinical endpoint was the change in InFLUenza Patient-Reported Outcome (FLU-PRO©) diary scores (total and domain breakdown). The FLU-PRO© score is designed to evaluate the presence, severity, and duration of influenza symptoms in clinical trials and standardize symptom assessment with respect to viral infections. The diary provides a comprehensive evaluation of symptomology over 32 distinct questions. Respondents answer on an ordinal scale from 0-4 across six domains: Body/Systemic, Chest/Respiratory, Eyes, Gastrointestinal, Nose, and Throat. The validity and reliability of the FLU-PRO© diary has been investigated. The ability to successfully adapt the measure for COVID-19 experimentation has also been explained (www.evidera.com/flu-pro/). […] Additional clinical endpoints included measuring FLU-PRO© symptom prevalence and investigating correlations between improvements in FLU-PRO© and decreases in hs-CRP levels.
Baseline characteristics, biomarkers, and clinical endpoints were described as frequencies and percentages (for categorical data) or medians with interquartile ranges (for continuous variables). Cohort comparisons were performed with the Wilcoxon Signed Rank (within-group), Mann-Whitney U (between group, continuous variables) or Fisher's Exact (between group, categorical variables) statistical tests. Within- and between-group p-values describing clinical (FLU-PRO©) score changes were conducted using a Wald test on least squares-mean estimated treatment difference, from an analysis of variance (ANOVA) model. Within- and between-group comparisons for the primary biomarker endpoint included median change from baseline. hs-CRP analyses were conducted with unadjusted and adjusted data (for sex, age [men <45 versus ≥45 years and women <55 versus ≥55 years], and baseline cardiovascular risk [absence or presence of cardiovascular comorbidities]). The model adjustments for baseline covariates were warranted based on current literature. Remaining unadjusted secondary biomarker data were evaluated via two-tailed within-group Wilcoxon Signed Rank Tests and between-group Mann-Whitney Tests. The prevalence and change from baseline total and individual domain FLU-PRO© scores were calculated as measures of alterations in symptom severity. Correlations between FLU-PRO© score improvement and hs-CRP reduction were calculated using the Spearman correlation coefficient. A p-value of less than 0.05 was considered significant without multiplicity adjustment, and all analyses were conducted using a modified intention-to-treat model.

[1] = 14 + 3 Days, n = 44, within-group P 0.07
[2] = 14 + 3 Days, n = 44, within-group P <0.01

## CC/C=C\C/C=C\C/C=C\C/C=C\C/C=C\CCCC(=O)OCC [icosapent ethyl, eicosapentaenoic acid ethyl ester]
14 + 3 Days, n = 44, IQR 0.6, 4.4
  hs-CRP median, 14 + 3 Days: 1.6 mg/L
14 + 3 Days, n = 44, product of NLR*platelets, within-group P <0.01
  SII (systemic immune-inflammation index, median), 14 + 3 Days: 4.319e+11 L⁻¹
14 + 3 Days, n = 44, within-group P 0.01
  WBC Differential, Lymphocytes (median), 14 + 3 Days: 2.4e+09 L⁻¹
14 + 3 Days, n = 44, within-group P 0.03
  MCV (median), 14 + 3 Days: 87.5 fL
[1]
  NLR (neutrophil-lymphocyte ratio, median), 14 + 3 Days: 1.6
  WBC Differential, Basophils (median), 14 + 3 Days: 0 L⁻¹
  WBC Differential, Eosinophils (median), 14 + 3 Days: 1e+08 L⁻¹
14 + 3 Days, n = 44, within-group P 0.08
  WBC Differential, Monocytes (median), 14 + 3 Days: 6e+08 L⁻¹
14 + 3 Days, n = 44, within-group P 0.14
  RDW (median), 14 + 3 Days: 12.5 % CV
14 + 3 Days, n = 44, within-group P 0.17
  eGFR (median), 14 + 3 Days: 87.0 mL/min/1.73 m^2
14 + 3 Days, n = 44, within-group P 0.19
  Lipid Assessment, Triglycerides (median), 14 + 3 Days: 1.5 mmol/L
14 + 3 Days, n = 44, within-group P 0.20
  ESR (median), 14 + 3 Days: 15.5 mm/hr
14 + 3 Days, n = 44, within-group P 0.21
  Creatinine (median), 14 + 3 Days: 73.5 µmol/L
14 + 3 Days, n = 44, within-group P 0.22
  MCHC (median), 14 + 3 Days: 339.5 g/L
14 + 3 Days, n = 44, within-group P 0.40
  MCH (median), 14 + 3 Days: 29.4 pg
14 + 3 Days, n = 44, within-group P 0.88
  Albumin (median), 14 + 3 Days: 43.0 g/L
[2]
  HbA1C (median), 14 + 3 Days: 5.1%
  Hematocrit (median), 14 + 3 Days: 0.4 L/L
  Hemoglobin (median), 14 + 3 Days: 130.5 g/L
  Lipid Assessment, HDL-C (median), 14 + 3 Days: 1.2 mmol/L
  Lipid Assessment, LDL-C (median), 14 + 3 Days: 2.5 mmol/L
  Lipid Assessment, Non-HDL-C (median), 14 + 3 Days: 3.3 mmol/L
  Lipid Assessment, Total Cholesterol (median), 14 + 3 Days: 4.7 mmol/L
  Platelet (median), 14 + 3 Days: 2.615e+11 L⁻¹
  RBC Count (median), 14 + 3 Days: 4.7e+12 L⁻¹
  WBC Count (median), 14 + 3 Days: 7.3e+09 L⁻¹
  WBC Differential, Neutrophils (median), 14 + 3 Days: 3.9e+09 L⁻¹
Baseline, n = 44
  Albumin (median), Baseline: 44.0 g/L
  Creatinine (median), Baseline: 74.0 µmol/L
  D-dimer (median), Baseline: 324.0 µg/L
  ESR (median), Baseline: 18.0 mm/hr
  Erythrocyte Sedimentation Rate (median), Baseline: 18.0 mm/hour
  HbA1C (median), Baseline: 5.2%
  Hematocrit (median), Baseline: 0.4 L/L
  Hemoglobin (median), Baseline: 139.5 g/L
  Lipid Assessment, HDL-C (median), Baseline: 1.1 mmol/L
  Lipid Assessment, LDL-C (median), Baseline: 2.2 mmol/L
  Lipid Assessment, Non-HDL-C (median), Baseline: 3.2 mmol/L
  Lipid Assessment, Total Cholesterol (median), Baseline: 4.3 mmol/L
  Lipid Assessment, Triglycerides (median), Baseline: 1.4 mmol/L
  MCH (median), Baseline: 30.0 pg
  MCHC (median), Baseline: 338.0 g/L
  MCV (median), Baseline: 86.5 fL
  NLR (neutrophil-lymphocyte ratio, median), Baseline: 1.7
  Platelet (median), Baseline: 2.27e+11 L⁻¹
  RBC Count (median), Baseline: 4.9e+12 L⁻¹
  RDW (median), Baseline: 12.3 % CV
  WBC Count (median), Baseline: 6.1e+09 L⁻¹
  WBC Differential, Basophils (median), Baseline: 0 L⁻¹
  WBC Differential, Eosinophils (median), Baseline: 1e+08 L⁻¹
  WBC Differential, Lymphocytes (median), Baseline: 1.9e+09 L⁻¹
  WBC Differential, Monocytes (median), Baseline: 5e+08 L⁻¹
  WBC Differential, Neutrophils (median), Baseline: 3e+09 L⁻¹
  eGFR (median), Baseline: 86.0 mL/min/1.73 m^2
Baseline, n = 44, IQR 0.9, 11.6
  hs-CRP median, Baseline: 3.2 mg/L
Baseline, n = 44, product of NLR*platelets
  SII (systemic immune-inflammation index, median), Baseline: 3.398e+11 L⁻¹
Day 14 + 3, n = 44, within-group P 0.048
  D-dimer (median), Day 14 + 3: 286.5 µg/L
Day 14 + 3, n = 44, within-group P 0.20
  Erythrocyte Sedimentation Rate (median), Day 14 + 3: 15.5 mm/hour
Baseline (day 1) to day 14+3, 8 g/day for 3 days, then 4 g/day for 11 days
  Median hs-CRP change at follow-up: -0.5 mg/L
Baseline to day 14 + 3, n = 44, IQR −6.9, 0.4, within-group P 0.011, between-group P 0.082 unadjusted, 0.043 adjusted
  hs-CRP Median Change from Baseline: -0.5 mg/L
Baseline to day 14 + 3, n = 44, IQR −80.1, 26.7
  hs-CRP Median Percent Change from Baseline: −25.0%
Baseline to day 14+3, within IPE group
  hs-CRP reduction from baseline levels: 25%
